ChEMBL document CHEMBL1127848, “Three-dimensional quantitative structure-activity relationship of human immunodeficiency virus (I) protease inhibitors. 2. Predictive power using limited exploration of alternate binding modes” (J Med Chem, 1994)

Each compound was assayed against Human immunodeficiency virus type 1 protease (Human immunodeficiency virus 1, UniProt Q72874) (assay: Inhibitory activity against HIV-1 Protease).

IC50 [nM]	Structure (SMILES)
2400	CC(C)[C@@H](C(=O)N[C@H]1Cc2ccccc2[C@H]1O)[C@@H](O)[C@H](O)[C@H](CC1CCCCC1)NC(=O)c1ncccc1OCSc1ccccc1
5	CC(C)(C)NC(=O)N(CC(O)[C@H](Cc1ccccc1)NC(=O)[C@H](CC(N)=O)NC(=O)c1ccc2ccccc2n1)C1CCCCC1 (stereo not given in full)
80.9	CC[C@H](C)[C@H](NC(=O)[C@H](C(C)C)[C@@H](O)[C@H](O)[C@H](CC1CCCCC1)NC(=O)c1ccccc1)C(=O)NCc1nc2ccccc2[nH]1
540	CC[C@H](C)[C@H](NC(=O)[C@H](C(C)C)C(O)[C@H](O)[C@H](CC1CCCCC1)NC(=O)c1ncccc1OCOc1ccccc1)C(=O)NCc1nc2ccccc2[nH]1 (stereo not given in full)
29	CC(C)(C)NC(=O)N(CC(O)[C@H](Cc1ccccc1)NC(=O)[C@H](CC(N)=O)NC(=O)OCc1ccccc1)C1CCCCC1 (stereo not given in full)
108	CC[C@H](C)[C@H](NC(=O)[C@H](C(C)C)[C@@H](O)[C@H](O)[C@H](CC1CCCCC1)NC(=O)c1cccc(C)c1OCOc1ccccc1)C(=O)NCc1nc2ccccc2[nH]1
540	CC(C)[C@@H](C(=O)N[C@H]1Cc2ccccc2[C@H]1O)[C@@H](O)[C@H](O)[C@H](CC1CCCCC1)NC(=O)c1ccccc1OCOc1ccccc1
36	CC(C)[C@@H](C(=O)N[C@H]1Cc2ccccc2[C@H]1O)[C@@H](O)[C@H](O)[C@H](CC1CCCCC1)NC(=O)c1ccccc1
19	CC(C)(C)NC(=O)N(Cc1ccccc1)CC(O)[C@H](Cc1ccccc1)NC(=O)[C@H](CC(N)=O)NC(=O)OCc1ccccc1 (stereo not given in full)
6.01	CC(C)CN(CC(O)[C@H](Cc1ccccc1)NC(=O)[C@H](CC(N)=O)NC(=O)c1ccc2ccccc2n1)C(=O)NC(C)(C)C (stereo not given in full)
543	CCCNC(=O)N(CC(C)C)CC(O)[C@H](Cc1ccccc1)NC(=O)[C@H](CC(N)=O)NC(=O)OCc1ccccc1 (stereo not given in full)
19	CC(C)(C)NC(=O)N(Cc1ccncc1)CC(O)[C@H](Cc1ccccc1)NC(=O)[C@H](CC(N)=O)NC(=O)c1ccc2ccccc2n1 (stereo not given in full)
315	CC[C@H](C)[C@H](NC(=O)[C@H](C(C)C)[C@@H](O)[C@H](O)[C@H](CC1CCCCC1)NC(=O)c1ncccc1OCSc1ccccc1)C(=O)NCc1nc2ccccc2[nH]1
450	CC(C)[C@@H](C(=O)N[C@H]1Cc2ccccc2[C@H]1O)[C@@H](O)[C@H](O)[C@H](CC1CCCCC1)NC(=O)c1ccccc1OCSc1ccccc1
3	CC(C)(C)NC(=O)N(Cc1ccccc1)CC(O)[C@H](Cc1ccccc1)NC(=O)[C@H](CC(N)=O)NC(=O)c1ccc2ccccc2n1 (stereo not given in full)
49.5	CC[C@H](C)[C@H](NC(=O)[C@H](C(C)C)[C@@H](O)[C@H](O)[C@H](CC1CCCCC1)NC(=O)C1CCCCC1)C(=O)NCc1ccccn1
18	CC[C@H](C)[C@H](NC(=O)[C@H](C(C)C)C(O)[C@H](O)[C@H](CC1CCCCC1)NC(=O)c1ccccc1OCOc1ccccc1)C(=O)NCc1nc2ccccc2[nH]1 (stereo not given in full)
11.2	CC[C@H](C)[C@H](NC(=O)[C@H](C(C)C)[C@@H](O)[C@H](O)[C@H](CC1CCCCC1)NC(=O)c1ccccc1OCSc1ccccc1)C(=O)NCc1nc2ccccc2[nH]1
3	CC(C)CCN(CC(O)[C@H](Cc1ccccc1)NC(=O)[C@H](CC(N)=O)NC(=O)c1ccc2ccccc2n1)C(=O)NC(C)(C)C (stereo not given in full)
540	CC(C)[C@@H](C(=O)N[C@H]1Cc2ccccc2[C@H]1O)[C@@H](O)[C@H](O)[C@H](CC1CCCCC1)NC(=O)c1ncccc1OCOc1ccccc1

Structure (SMILES)	IC50 [nM]
CNC(=O)N(CC(C)C)CC(O)[C@H](Cc1ccccc1)NC(=O)[C@H](CC(N)=O)NC(=O)OCc1ccccc1 (stereo not given in full)	1500
CCCCNC(=O)N(CC(C)C)CC(O)[C@H](Cc1ccccc1)NC(=O)[C@H](CC(N)=O)NC(=O)OCc1ccccc1 (stereo not given in full)	942
CCCCNC(=O)N(CC(C)C)CC(O)[C@H](Cc1ccccc1)NC(=O)[C@H](CC(N)=O)NC(=O)c1ccc2ccccc2n1 (stereo not given in full)	126
CC(c1ccccc1)N(CC(O)[C@H](Cc1ccccc1)NC(=O)[C@H](CC(N)=O)NC(=O)OCc1ccccc1)C(=O)NC(C)(C)C (stereo not given in full)	5090
CC(C)CN(CC(O)[C@H](Cc1ccccc1)NC(=O)[C@H](CC(N)=O)NC(=O)OCc1ccccc1)C(=O)NC(C)C (stereo not given in full)	260
C[C@H](c1ccccc1)N(CC(O)[C@H](Cc1ccccc1)NC(=O)[C@H](CC(N)=O)NC(=O)OCc1ccccc1)C(=O)NC(C)(C)C (stereo not given in full)	6500
CCNC(=O)N(CC(C)C)CC(O)[C@H](Cc1ccccc1)NC(=O)[C@H](CC(N)=O)NC(=O)OCc1ccccc1 (stereo not given in full)	330
CC(C)CCN(CC(O)[C@H](Cc1ccccc1)NC(=O)[C@H](CC(N)=O)NC(=O)OCc1ccccc1)C(=O)NC(C)(C)C (stereo not given in full)	13
CC(C)(C)NC(=O)N(Cc1ccncc1)CC(O)[C@H](Cc1ccccc1)NC(=O)[C@H](CC(N)=O)NC(=O)OCc1ccccc1 (stereo not given in full)	105
CC(C)CN(CC(O)[C@H](Cc1ccccc1)NC(=O)[C@H](CC(N)=O)NC(=O)OCc1ccccc1)C(=O)NC(C)(C)C (stereo not given in full)	35
